Here are results for three molecules from US20250296960A1, “PEPTIDE COMPOSITIONS AND METHODS OF USE THEREOF” (priority 2022, published 2025).

Numbered stars: 1 amine (or outer) side, 2 acyl side, 3 side chain; on linkers, the order of the positions; unused ones are H or OH. Square brackets hold non-standard residues; d marks the D form. Side chains are listed from the residue outwards. Ends that are not written are not given here. Peptide text beside a SMILES is read from it. * marks the point of attachment. C18 = C18 fatty acid (C16-C22 fatty acids conjugated via γGlu/8-amino-3,6-dioxaoctanoic acid spacers); Biotin = O=C1N[C@H]2[C@H](CS[C@H]2CCCCC(=O)*)N1; C18 diacid = O=C(O)CCCCCCCCCCCCCCCCC(=O)*; γGlu = O=C(O)[C@H](CCC(=O)[*:2])N[*:1]; AEEA = NCCOCCOCC(=O)O; Aib = CC(C)(N)C(=O)O

Series [1] is described as follows: Body weight loss in normal C57BL/6 mice, subcutaneous dosing. To be noted: normal mice; 20 nmol/kg QD; Weight loss at 48 hr. Format: in vivo.
A short description of series [2]: In vivo efficacy in mAMLN (NASH) mice, 2 weeks. Conditions: for blood glucose, in words / body weight, in words: 20 nmol/kg s.c. Q2D, 2 weeks; for hepatic triglyceride content, in words / liver weight, in words / mRNA levels of TGF-β1 (inflammation marker) and ACTA2 (fibrosis marker), in words: end of treatment.
A short description of series [3]: Intestinal absorption / PK after intraduodenal administration of oral formulation in rats, serum LC-MS/MS. Conditions: rat, in vivo, 300 nmol/kg. Here is the method: This study was conducted to evaluate the intestinal absorption of peptides following enteral administration of oral pharmaceutical formulations. The pharmaceutical formulation was administered in a form of suspensions by intraduodenal (ID) injection in rats. SEQ ID_87, 89 and 90 was accurately weighed and dissolved in 10 mM PBS containing polysorbate 80 (pH 7.4, vehicle I). The mixture was vortexed for 5 min to get a clear solution. Then, 2.5 mL of vehicle was added to the mixture and vortexed for 30 min to get homogenous opaque suspension. The composition of Vehicle II was sodium chenodeoxycholate, and propyl gallate in polysorbate 80 in PBS. The animals were not fasted prior to dosing. 0.2˜ 0.4 mL of whole blood was taken from vein at each time point (0, 0.167, 0.5, 1, 2, 4, 8, 24, and 48 hrs after IV or ID administration). The collected whole blood was incubated at room temperature for 20 min and tubes were centrifugated at 13,000 rpm for 10 min at 4° C. The resulting serum 0.1˜ 0.2 mL was transferred into the tube and stored at −70° C. until analysis. The concentrations of peptides in serum were determined by LC-MS/MS analysis. PK parameters were analyzed by non-compartmental analysis using Phoenix WinNonlin 5.0.1. software (Pharsight Corporation, Mountain View, CA, USA).

As a reminder, the AUC(0-inf) is total exposure, with the tail of the curve extrapolated. For orientation: Cmax means the peak of the concentration-time curve. The MRT inf is a mean duration of stay, worked out from the concentration-time curve. In general, Tmax refers to the time from dosing to the highest level. As usually defined, the half-life is how long it takes for the measured level to halve. Low readings indicate fast loss, high ones slow loss.

On to “YAibQGT FTSDY SK*YLD YMMQRDFVQWLIEGGPSSGAPPPS (Y[Aib]QGTFTSDYSK([AEEA-AEEA-γGlu-C18])YLDYMMQRDFVQWLIEGGPSSGAPPPS-NH2) [5-2D, K* = lysine lipidated with 2OEG-γGlu-C18]”, for which the “Weight loss (%)” value in series [1] worked out at 16.6 ± 0.9%. In addition, in series [2], the “blood glucose, in words” value was “reduce blood glucose”; the “body weight, in words” value is on record as “reduce body weight”; the “hepatic triglyceride content, in words” value is “reduce hepatic triglyceride content”; the “liver weight, in words” value is “reduce liver weight”. Besides, the “mRNA levels of TGF-β1 (inflammation marker) and ACTA2 (fibrosis marker), in words” value in series [2] was “reduce both TGF-β1 and ACTA2”.
Regarding “YAibQGT FTSDY SK*YLD YMMARDFVQWLIEGGPSSGAPPPS (Y[Aib]QGTFTSDYSK([AEEA-AEEA-γGlu-C18])YLDYMMARDFVQWLIEGGPSSGAPPPS-NH2) [5-1D, K* = lysine lipidated with 2OEG-γGlu-C18]”, the “Weight loss (%)” value in series [1] came out at 16.7 ± 1.3%. Moreover, in series [2], the “blood glucose, in words” value is listed as “reduce blood glucose”; the “body weight, in words” value is listed as “reduce body weight”; the “hepatic triglyceride content, in words” value is “reduce hepatic triglyceride content”; the “liver weight, in words” value is “reduce liver weight”. In series [2], the “mRNA levels of TGF-β1 (inflammation marker) and ACTA2 (fibrosis marker), in words” value was “reduce both TGF-β1 and ACTA2”.
Regarding `CSCC[C@H](NC(=O)[C@H](Cc1ccc(O)cc1)NC(=O)[C@H](CC(=O)O)NC(=O)[C@H](CC(C)C)NC(=O)[C@H](CC(C)C)NC(=O)[C@H](CCCCNC(=O)COCCOCCNC(=O)COCCOCCNC(=O)CC[C@H](NC(=O)CCCCCCCCCCCCCCCCC(=O)O)C(=O)O)NC(=O)[C@H](CO)NC(=O)[C@H](Cc1ccc(O)cc1)NC(=O)[C@H](CC(=O)O)NC(=O)[C@H](CO)NC(=O)[C@@H](NC(=O)[C@H](Cc1ccccc1)NC(=O)[C@@H](NC(=O)CNC(=O)[C@H](CCC(N)=O)NC(=O)C(C)(C)NC(=O)[C@@H](N)Cc1ccc(O)cc1)[C@@H](C)O)[C@@H](C)O)C(=O)N[C@@H](CCSC)C(=O)N[C@@H](CCC(N)=O)C(=O)N[C@@H](CCCNC(=N)N)C(=O)N[C@@H](CC(=O)O)C(=O)N[C@@H](Cc1ccccc1)C(=O)N[C@H](C(=O)N[C@@H](CCC(N)=O)C(=O)N[C@@H](Cc1c[nH]c2ccccc12)C(=O)N[C@@H](CC(C)C)C(=O)N[C@@H](CC(C)C)C(=O)N[C@@H](CCC(=O)O)C(=O)NCC(=O)NCC(=O)N1CCC[C@H]1C(=O)N[C@@H](CO)C(=O)N[C@@H](CO)C(=O)NCC(=O)N[C@@H](C)C(=O)N1CCC[C@H]1C(=O)N1CCC[C@H]1C(=O)N1CCC[C@H]1C(=O)N[C@@H](CO)C(=O)N[C@@H](CCCCNC(=O)CCCC[C@@H]1SC[C@@H]2NC(=O)N[C@@H]21)C(N)=O)C(C)C` [SEQ ID_90] (H-Y[Aib]QGTFTSDYSK([AEEA-AEEA-γGlu-C18 diacid])LLDYMMQRDFVQWLLEGGPSSGAPPPSK(Biotin)-NH2; N-terminus and C-terminus assumed), in series [3], the total exposure AUC(0-inf) was 2490 ng·h/mL, the highest level (Cmax) was 282 ± 88.5 ng/mL, the MRT inf was determined as 11.8 ± 1.48 h and the Tmax stood at 0.3 ± 0.18 h. The molecule further had a half-life in series [3] of 8.37 ± 0.92 h.
